Results taken from patent US8338414B2, “Immunosuppressive agent and anti-tumor agent comprising heterocyclic compound as active ingredient” (Zenyaku Kogyo KabushikiKaisha, priority 2005, dated 2012).
Like-named read-outs stand apart in the source and are kept apart here.

Columns and labels:
mouse spleen cells = assay: Proliferation inhibition assay for mouse spleen cells; type: cell-based; conditions: 72 h, 3 days, Alamar Blue
Procedure, shortened: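 C57BL/6N female mouse spleen cells (2×10^6 cells/mL) stimulated with Con A (3 μg/mL), LPS (100 μg/mL) or anti-mouse IgM (100 μg/mL) alongside serially diluted compounds, 3 days at 37° C, 5% CO2. Alamar Blue added for a further day; fluorescence read at ex 530/em 590 nm.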

[1] = test system: Rabbit synoviocytes HIG-82; assay: Inhibition assay for proliferation of rabbit synoviocyte; type: cell-based; conditions: Oryctolagus cuniculus, 72 h; HIG-82, 3 days, Alamar Blue
Daudi cells = assay: Proliferation inhibitory activity on hematologic neoplasm cells, Daudi; type: cell-based; conditions: Homo sapiens, Daudi, 72 h; 3 days, Alamar Blue
Jurkat cells = assay: Proliferation inhibitory activity on hematologic neoplasm cells, Jurkat; type: cell-based; conditions: Homo sapiens, Jurkat, 72 h; 3 days, Alamar Blue
THP-1 cells = assay: Proliferation inhibitory activity on hematologic neoplasm cells, THP-1; type: cell-based; conditions: Homo sapiens, THP-1, 72 h; 3 days, Alamar Blue
[2] = Test for measuring blood level; type: in vivo; conditions: mouse, serum; BDF1 male mice, 200 mg/kg oral, one hour after the administration
Experimental: A pharmacokinetic study was performed using 6 week-old BDF1 male mice. The test substances were mixed with hydroxylpropylcellulose (low-molecular weight form) [HPC(L)] in 2.5-fold of the drug weight, and dissolved in dichloromethane. The solvent was evaporated to dryness. To make the dosing formation, the residue was suspended in distilled water to prepare the drug level of 20 mg/mL. The test compounds were administered compulsorily and orally at a dose of 200 mg/kg to the mice that had been starved for 16 hours. One hour after the administration, blood was collected from the orbits of two mice to obtain serum. Internal standards solution and 1 ml of distilled water were added to 100 μL, of serum thus obtained, and then extracted with diethylether. The solvent was evaporated under vacuum, and the residue was resolved with eluent to provide samples for the HPLC measurement. HPLC was performed by using reversed-phase type column, and acetonitrile-phosphate buffer (pH 2.5) was used as the eluent. Using regression curves (Y=aX+b) obtained from the standards, the drug levels in the sample serum were calculated.

[3] = test system: PC-3 prostate cancer cells; assay: Proliferation inhibitory activity on solid tumor cells, PC-3; type: cell-based; conditions: 72 hours
Experimental: (§1) Used in the test were MCF-7 cells which were established from human breast cancer and were cultured routinely under the conditions of 37° C. and 5% CO2, in MEM medium supplemented with 10% fetal calf serum, 25 mM of HEPES and 0.1 mg/ml kanamycin. The MCF-7 cells in a logarithmic growth phase were treated with trypsin/EDTA to prepare single cell suspension adjusted to 4.0×10^4 cells/ml in MEM medium (supplemented with 10% fetal calf serum, 25 mM of HEPES and 0.1 mg/ml kanamycin). Test compounds were dissolved in DMSO and diluted with RPMI 1640 medium (supplemented with 10% fetal calf serum, 25 mM of HEPES and 0.1 mg/ml kanamycin) to a concentration of […] to 2.0×10^−9M.
(§2) The cell suspension was filled in a 96-wells microplate at a rate of 0.1 ml per well and was cultured for 24 hours so as to make the cells to adhere to the microplate. Then, it was added with 0.1 ml of the sample solution and cultured at 37° C. for 72 hours in 5% CO2.
(§3) 50% Growth inhibition concentrations (GI50 μM) were calculated from growth inhibitions at various sample concentrations.
(§4) In the foregoing, when the cells other than MCF-7 are used, instead of adding 10% fetal bovine serum, the following media were used, and the following single cell suspensions were prepared. • PC-3 prostate cancer cells: 10% fetal bovine serum in F12K medium, single cell suspension of 2×10^4 cells; • A549 lung cancer cells: 10% fetal bovine serum in DMEM medium, single cell suspension of 1.5×10^4 cells; • WiDr colon cancer cells: 10% fetal bovine serum in MEM medium, single cell suspension of 3×10^4 cells; • B16F10 melanoma cells: 10% fetal bovine serum in RPMI 1640 medium, single cell suspension of 1×10^4 cells;

B16F10 melanoma cells = assay: Proliferation inhibitory activity on solid tumor cells, B16F10; type: cell-based; conditions: Mus musculus, B16-F10; 72 hours
Experimental: as §1, §2, §3, §4

WiDr colon cancer cells = assay: Proliferation inhibitory activity on solid tumor cells, WiDr; type: cell-based; conditions: Homo sapiens, 72 hours
Experimental: as §1, §2, §3, §4

A549 lung cancer cells = assay: Proliferation inhibitory activity on solid tumor cells, A549; type: cell-based; conditions: Homo sapiens, 72 hours
Experimental: as §1, §2, §3, §4

MCF-7 cells = assay: Proliferation inhibitory activity on solid tumor cells, MCF-7; type: cell-based; conditions: Homo sapiens, MCF7; 72 hours
Experimental: as §1, §2, §3

[4] = test system: Salmonella typhimurium TA98, TA100, TA1535, TA1537 and Escherichia coli WP2uvrA; assay: Ames test; type: cell-based; conditions: preincubation method, with or without S-9, up to 5000 μg/flat plate
Experimental: Using 5 strains of Salmonella typhimurium TA98, TA100, TA1535, TA1537 and Escherichia coli WP2uvrA, the test substances (Compound 4, Compound 19, Compound 22 and Compound 24) were tested for their mutagenesis according to a preincubation method.

[5] = test system: human peripheral blood mononuclear cells; assay: Proliferation inhibition assay for human peripheral blood mononuclear cells; type: cell-based; conditions: Homo sapiens, 72 h; PBMC, anti-CD3 and anti-CD28 antibody, 3 days, Alamar Blue
Experimental: 4 mL of blood collected from healthy subjects was placed on 3 mL of MonoPoly Resolving Medium, and after centrifugation, the mononuclear cell (PBMC) fraction was collected. After washing with saline, PBMC (1×10^5 cells/mL) was suspended in RPMI 1640 medium (containing 10% fetal bovine serum, 10 mM HEPES, 1 mM pyruvic acid, and 4.5 g/L glucose). Next, after having added an anti-CD28 antibody (1 μg/mL) to the suspension, they were seeded on an anti-human CD3 T cell activation plate (BD Bioscience) at a capacity of 0.135 mL per well. Then, serial dilutions of test substances were added to respective wells, and incubated under conditions of carbon dioxide 5% at a temperature 37° C. After 3 days, Alamar Blue solution was added at 50 μL per well, and after incubation for one day, a fluorescence intensity at 590 nm using an excitation wavelength of 530 nm was determined by Cytoflour 4000 (Applied Biosystems).

[6] = test system: human peripheral blood mononuclear cells; assay: Activation inhibition assay for human peripheral blood mononuclear cells (CD40L, CD69 expression); type: cell-based; conditions: PBMC, anti-CD3 + anti-CD28, 6 hours, flow cytometry
Experimental: In accordance with the method of Assay Example 2, PBMC (2×10^6 cells/mL) was isolated from human peripheral blood, suspended in RPMI 1640 medium (containing 10% fetal bovine serum, 10 mM HEPES, 1 mM pyruvic acid, and 4.5 g/L glucose), and seeded in wells of a 96 well plate at 0.225 mL per well. The test substances were added to respective wells, and then an anti-CD3 antibody (2 μg/mL) and an anti-CD28 antibody (1 μg/mL) were added. Then, after incubation under conditions of carbon dioxide 5% at a temperature 37° C. for 6 hours, the expressions of CD40L and CD69, activation markers, were analysed by flow cytometry. As a result, when the cells were stimulated by both an anti-CD3 antibody and an anti-CD28 antibody, CD40L was expressed on 14.4% of PBMC, which was also CD4 positive. However, the proportion of the cells which expressed CD40L decreased when the cells had been treated with test substances (Compound 4: 4.9%; Compound 20: 3.7%, Compound 24: 3.6%).

[7] = test system: allogeneic mixed lymphocyte reaction; assay: Allogeneic mixed lymphocyte reaction; type: cell-based, mouse; conditions: Mus musculus, Lymphocyte; C57BL/6N spleen stimulator cells, BALB/c lymph node responder cells, 86 hours, BrdU
Experimental: Spleen cells prepared from C57BL/6N female mice (8-10 weeks old, purchased from Charles River Laboratories Japan Inc.) and peripheral lymph node mononuclear cells prepared from BALB/c female mice (8-10 weeks old, purchased from Charles River Laboratories Japan Inc.) were used as stimulator cells and responder cells, respectively. The respective cells were suspended in RPMI 1640 medium (containing 10% fetal bovine serum, 100 units/mL penicillin, and 0.1 mg/mL streptomycin) (with 2×10^6 cells/mL).

HL 60 cells = assay: Proliferation inhibitory activity on hematologic neoplasm cells, HL60; type: cell-based; conditions: Homo sapiens, HL-60, 72 h; 3 days, Alamar Blue
Experimental: (§5) Daudi cells (5×10^5 cells/mL), Jurkat cells (5×10^5 cells/mL), THP-1 cells (5×10^5 cells/mL), U 937 cells (5×10^5 cells/mL), and HL 60 cells (5×10^5 cells/mL) suspended in RPMI 1640 medium (containing 10% fetal bovine serum, 10 mM HEPES, 1 mM pyruvic acid, 4.5 g/L glucose, 100 units/mL penicillin, and 0.1 mg/mL streptomycin) were seeded in 96 well plates at a capacity of 0.135 mL per well. Serial dilutions of test substances were added to respective wells at 15 μL/well, and incubated under conditions of carbon dioxide 5% at 37° C. for 3 days. Thereafter, Alamar Blue solution was added at 50 μL, and after incubation for one day, the fluorescence intensity at 590 nm using an excitation wavelength of 530 nm was determined by Cytoflour 4000 (Applied Biosystems).

U 937 cells = assay: Proliferation inhibitory activity on hematologic neoplasm cells, U937; type: cell-based; conditions: Homo sapiens, U-937, 72 h; 3 days, Alamar Blue
Experimental: as §5

fulminant hepatitis = assay: Fulminant hepatitis model (galactosamine and LPS); type: in vivo, mouse; conditions: BALB/c mice, galactosamine 800 mg/kg and LPS 110 μg/kg i.p.
Experimental: BALB/c male mice (7 weeks old, purchased from Charles River Laboratories Japan Inc.) were used in the experiment. After having orally administered the test substances suspended in 5% HPC, galactosamine (800 mg/kg) and LPS (110 μg/kg) were intraperitoneally administered. Then, survival rates at 72 hours after administration were obtained.

[8] = LPS 100 μg/mL, read-out: Inhibition of LPS response
[9] = concanavalin A 3 μg/mL, read-out: Inhibition of Con A response
[10] = anti-mouse IgM antibody 100 μg/mL, read-out: Inhibition of Anti-IgM antibody response

SMILES	IC50 (mouse spleen cells; [8]) [nM]	IC50 (mouse spleen cells; [9]) [nM]	IC50 (Daudi cells) [nM]	IC50 (Jurkat cells) [nM]	IC50 (THP-1 cells) [nM]	concentration at 1 h [2] [ng/mL]	melting point	other results
CC(=O)N1CCN(c2nc(N3CCOCC3)nc(-n3c(C(F)F)nc4ccccc43)n2)CC1 [Compound 28, 4-(4-acetylpiperazin-1-yl)-2-(2-difluoromethylbenzimidazol-1-yl)-6-morpholino-1,3,5-triazine]	1 to 100	≤ 1	235	1800	496	16100	223 °C	IC50 [1]: 1110 nM; GI50 [3]: 270 nM; GI50 (B16F10 melanoma cells): 2660 nM; GI50 (WiDr colon cancer cells): 1270 nM; GI50 (A549 lung cancer cells): 830 nM; GI50 (MCF-7 cells): 1210 nM
CCOc1cccc2c1nc(C(F)F)n2-c1nc(N2CCOCC2)cc(N2CCOC(C)(C)C2)n1 [Compound 38, 2-(2-Difluoromethyl-4-ethoxybenzimidazol-1-yl)-4-(2,2-dimethylmorpholino)-6-morpholinopyrimidine]	–	–	–	–	–	5910	114 to 116 °C	–
CC1(C)COCCN1c1cc(N2CCOCC2)nc(-n2c(C(F)F)nc3c(O)cccc32)n1 [Compound 22, 2-(2-Difluoromethyl-4-hydroxybenzimidazol-1-yl)-4-(3,3-dimethylmorpholino)-6-morpholinopyrimidine]	≤ 1	≤ 1	–	–	–	–	204 to 206 °C	IC50 (mouse spleen cells; [10]): ≤ 1 nM; mutagenesis (colony number of reverse mutation) [4]: negative
COc1cccc2c1nc(C(F)F)n2-c1nc(N2CCOCC2)cc(N2CCO[C@@H](C)[C@H]2C)n1 (relative stereo) [Compound 37, 2-(2-Difluoromethyl-4-methoxybenzimidazol-1-yl)-4-(cis-2,3-dimethylmorpholino)-6-morpholinopyrimidine]	–	–	–	–	–	4760	176 to 178 °C	–
COc1cccc2c1nc(C(F)F)n2-c1nc(N2CCOCC2)cc(N2CCOC(C)(C)C2)n1 [Compound 36, 2-(2-Difluoromethyl-4-methoxybenzimidazol-1-yl)-4-(2,2-dimethylmorpholino)-6-morpholinopyrimidine]	–	–	–	–	–	7170	166 to 168 °C	–
CC1(C)CN(c2nc(N3CCOCC3)nc(-n3c(C(F)F)nc4c(Cl)cc(N)cc43)n2)CCO1 [Compound 19, 2-(6-Amino-4-chloro-2-difluoromethylbenzimidazol-1-yl)-4-(2,2-dimethylmorpholino)-6-morpholino-1,3,5-triazine]	1 to 100	1 to 100	21.2	1600	120	–	238 °C (dec.)	mutagenesis (colony number of reverse mutation) [4]: negative
OCC1CCCN1c1nc(N2CCOCC2)nc(-n2c(C(F)F)nc3c(O)cccc32)n1 (centres unmarked) [Compound 20, 2-(2-Difluoromethyl-4-hydroxybenzimidazol-1-yl)-4-(2-hydroxymethylpyrrolidin-1-yl)-6-morpholino-1,3,5-triazine]	≤ 1	≤ 1	8.23	196	44	–	–	IC50 (mouse spleen cells; [10]): ≤ 1 nM; IC50 [5]: 8.15 nM; proportion of the cells which expressed CD40L ([6]; CD4 positive, 14.4% without test substance): 3.7%; proportion of CD4-positive cells which expressed CD69 ([6]; 28.8% without test substance): 10.1%; proportion of CD4-negative cells which expressed CD69 ([6]; 50.9% without test substance): 10.5%; IC50 [1]: 122 nM; IC50 [7]: 136 nM; IC50 (HL 60 cells): 74.5 nM; IC50 (U 937 cells): 252 nM; Survival Rate after 72 Hours (fulminant hepatitis; 50 mg/kg oral): 17%; Survival Rate after 72 Hours (fulminant hepatitis; 100 mg/kg oral): 72%
